Reference: patent US20260193254A1, “2-OXOQUINAZOLINE CRYSTALLINE FORMS” (IDEAYA Biosciences, Inc., priority 2022, published 2026)
In brackets after ≈: the same amount, converted by molar mass.

Key:
Assay type in all cases: physicochemical
[1] = Hygroscopicity: water sorption and desorption by dynamic vapor sorption (DVS); settings: for humidity at which water is absorbed again / water content restored (conversion back to the hydrate): DVS and variable humidity XRPD; for form change after the DVS test: XRPD after DVS
Protocol: In some embodiments, the crystalline form described herein is further characterized by is further characterized by a dynamic vapor sorption (DVS) profile. In some embodiments, a DVS is recorded according to the method as described herein with a cycle of 40-0-95-0-40% RH at 25° C.
Water sorption and desorption behaviors of Form A, Form C, Form D, and Form T were investigated by DVS at 25° C. with a cycle of 40-0-95-0-40% RH. Dm/dt was 0.002. Minimum equilibration time was 60 min. Maximum equilibration time was 360 min. XRPD was measured after DVS test to determine potential form change.

[2] = Variable humidity and temperature XRPD experiments; settings: for temperature above which the form starts to lose water: based on DSC results; for dehydration product (form obtained on loss of water): low humidity or heating above the dehydration temperature
Protocol: Based on DVS and DSC results of Form C, Form C starts to loss water when humidity is below 30% or when temperature is higher than about 44° C. […] In order to determine identity of potential form changes after the dehydration and upon the solid-solid transition, variable humidity and variable temperature XRPD techniques were applied. XRPD patterns of the sample were measured online under 25° C./ambient environment (initial)-120° C./N2 protection-25° C./ambient environment-25° C./80% RH (40 min)-25° C./0% RH (15 h), and 25° C./ambient environment (initial)-250° C./N2 protection-25° C./ambient environment. […] Form L coverts back to Form C after exposure to 25° C./80% RH for 40 min.
Based on DVS and DSC results of Form D, Form D starts to loss water when humidity is below 10% or when temperature is higher than 46° C. In order to determine identity of the dehydration product, variable humidity and variable temperature XRPD techniques were applied. XRPD patterns of the sample were measured online with a temperature cycle of 25° C./ambient environment (initial)-130° C./N2 protection (10 min)-25° C./N2 protection-25° C./ambient environment (3h) and two water sorption and desorption cycles of 50% RH (initial)-90% RH (3h)-60% RH (2h)-40% RH (2h)-20% RH (3h)-10% RH (3h)-0% RH (6h)-10% RH (3h)-20% RH (3h)-50% RH at 25° C. […] (higher than dehydration temperature). Form S converts back to Form D after exposure to ambient condition for 3 h.
In order to investigate potential form change of Form A upon heating, variable temperature XRPD technique was applied. XRPD patterns of the sample were measured online with a temperature cycle of 25° C. (initial)-50° C./N2 protection-70° C./N2 protection-250° C./N2 protection-25° C./N2 protection-25° C./ambient condition (3h). […] Form A converts to Form U when temperature is 250° C., and Form U converts to Form T after cooling to 25° C.

[3] = Equilibrium solubility in FeSSIF and FaSSIF; settings: for XRPD of solid after solubility test / final pH / Solubility / impurity in solubility sample: 24 hours; for Solubility / solubility at 24 h: target concentration 1 mg/mL, HPLC method 1 or 2 (footnote); for impurity in solubility sample: no unit printed for impurity (column head mg/mL); for solubility at 24 h: 37 °C, thermodynamic from solid
Protocol: (§1) Solid part and liquid part were separated by filtration. Solubility was measured by HPLC. Solid part (wet cake) was investigated by XRPD.

[4] = Grinding simulation experiments - dry grinding
Protocol: About 20 mg of Form A, Form D, and Form T were ground manually with a mortar and a pestle for 5 min or 1 min. Potential from transition and degree of crystallinity were evaluated by XRPD.

[5] = Grinding simulation experiments - wet grinding (granulation)
Protocol: Water or ethanol was added drop wise to about 20 mg of Form A, Form D, or Form T until solid was wetted sufficiently. Vortex was applied between each addition. Samples were dried under ambient condition for 10 min. Potential form transition and degree of crystallinity were evaluated by XRPD.

[6] = Bulk stability of crystalline forms; settings: for Purity, Bulk (HPLC): Solid state
Description: (§2) Solids obtained after bulk stability study were characterized by XRPD and HPLC.

[7] = Variable humidity and temperature XRPD experiments
[8] = Bulk stability of crystalline forms; set-up: key: Color A: All No change of color; settings: Solid state
Description: as §2

[9] = Equilibrium solubility in SGF (pH 2.0), 0.1 N HCl (pH 1.2) and phosphate buffer (pH 8.0); settings: solid from solubility study with Form A in 0.1 N HCl solution
Protocol: as §1

[10] = 25° C./92% RH, open container, 1 week
[11] = 25° C./92% RH, open container, 2 weeks
[12] = 40° C./75% RH, open container, 1 week
[13] = 40° C./75% RH, open container, 2 weeks
[14] = 60° C., tight container, 1 week
[15] = 60° C., tight container, 2 weeks

Nc1nc(=O)n(-c2ccccc2Cl)c2nc(C(F)(F)F)ccc12 [Form L, 4-Amino-1-(2-chlorophenyl)-7-(trifluoromethyl)pyrido[2,3-d]pyrimidin-2(1H)-one]
humidity at which water is absorbed again / water content restored (conversion back to the hydrate) ([1]; 25° C.): ≥ 80 % RH
form after exposure to 25° C./80% RH for 40 min ([2]; variable humidity XRPD): Form C
form obtained on heating to 250° C. ([2]; variable temperature XRPD, N2 protection): solid state Form V

Nc1nc(=O)n(-c2ccccc2Cl)c2nc(C(F)(F)F)ccc12 [Form F, 4-Amino-1-(2-chlorophenyl)-7-(trifluoromethyl)pyrido[2,3-d]pyrimidin-2(1H)-one]
XRPD of solid after solubility test ([3]; FaSSIF, pH 6.5, 37° C.): Form F
final pH ([3]; FaSSIF, pH 6.5, 37° C.): 6.6
XRPD of solid after solubility test ([3]; FeSSIF, pH 5.0, 37° C.): Form F
final pH ([3]; FeSSIF, pH 5.0, 37° C.): 5.0
Solubility ([3]; FeSSIF, pH 5.0, 37° C.): 240 µg/mL (≈ 704 µM)

Nc1nc(=O)n(-c2ccccc2Cl)c2nc(C(F)(F)F)ccc12 [Form D, 4-Amino-1-(2-chlorophenyl)-7-(trifluoromethyl)pyrido[2,3-d]pyrimidin-2(1H)-one]
humidity at which water is absorbed again / water content restored (conversion back to the hydrate) ([1]; 25° C.): higher than 20 % RH
hygroscopicity ([1]; DVS at 25° C., cycle 40-0-95-0-40% RH): slightly hygroscopic
water uptake ([1]; DVS, from 40% to 95% RH, 25° C.): about 0.9%
form change after the DVS test [1]: No form change
XRPD (XRPD method 2) ([2]; VT13 25° C./55% RH (final)): Form D
temperature above which the form starts to lose water [2]: higher than 46 °C
dehydration product (form obtained on loss of water) [2]: Form S
XRPD after dry grinding ([4]; Dry grinding for 1 min): substantially amorphous
XRPD after dry grinding ([4]; Dry grinding for 5 min): substantially amorphous
tolerance to dry grinding ([4]; ground manually with mortar and pestle, 5 min or 1 min, XRPD): poor tolerance
XRPD after wet grinding ([5]; Ethanol): substantially amorphous
XRPD after wet grinding ([5]; Water): No form change
form change after granulation with water ([5]; wet grinding, XRPD): no form change
tolerance to granulation with ethanol or water ([5]; wet grinding, XRPD): poor tolerance
tolerance to granulation with water ([5]; wet grinding, XRPD): good tolerance
Purity, Bulk (HPLC) [6, 10]: 98.0%
Purity, Bulk (HPLC) [6, 11]: 98.0%
Purity, Bulk (HPLC) [6, 12]: 98.1%
Purity, Bulk (HPLC) [6, 13]: 98.2%
Purity, Bulk (HPLC) [6, 14]: 98.1%
Purity, Bulk (HPLC) [6, 15]: 97.8%
Initial purity ([6]; before stress, HPLC): 98.0%
chemical stability and physical stability (bulk stability) ([6]; stressed under 25° C./92 RH, 40% C/75% RH and 60° C., XRPD and HPLC): good chemical stability and physical stability
XRPD of solid after solubility test ([3]; FaSSIF, pH 6.5, 37° C.): Form D
final pH ([3]; FaSSIF, pH 6.5, 37° C.): 6.6
Solubility ([3]; FaSSIF, pH 6.5, 37° C.): 90 µg/mL (≈ 264 µM)
impurity in solubility sample ([3]; FaSSIF, pH 6.5, 37° C.): no impurity
XRPD of solid after solubility test ([3]; FeSSIF, pH 5.0, 37° C.): Form D
final pH ([3]; FeSSIF, pH 5.0, 37° C.): 5.2
Solubility ([3]; FeSSIF, pH 5.0, 37° C.): 210 µg/mL (≈ 616 µM)
impurity in solubility sample ([3]; FeSSIF, pH 5.0, 37° C.): no impurity
XRPD (XRPD method 2) ([7]; VRH1 21° C./50% RH (initial)): Form D
XRPD (XRPD method 2) ([7]; VRH2 21° C./90% RH (3 h)): Form D
XRPD (XRPD method 2) ([7]; VRH3 21° C./60% RH (2 h)): Form D
XRPD (XRPD method 2) ([7]; VRH4 21° C./40% RH (2 h)): Form D
XRPD (XRPD method 2) ([7]; VRH5 21° C./20% RH (3 h), desorption): Form D
XRPD (XRPD method 2) ([7]; VRH6 21° C./10% RH (3 h), desorption): Form S
XRPD (XRPD method 2) ([7]; VRH7 21° C./0% RH (6 h)): Form S
XRPD (XRPD method 2) ([7]; VRH8 21° C./10% RH (3 h), after 0% RH): Form S
XRPD (XRPD method 2) ([7]; VRH9 21° C./20% RH (3 h), after 0% RH): Form S
XRPD (XRPD method 2) ([7]; VRH10 21° C./50% RH (final)): Form D
XRPD (XRPD method 2) ([7]; VT9 25° C./55% RH (initial)): Form D
XRPD (XRPD method 2) ([7]; VT10 130° C./55% RH (10 min)): Form S
XRPD (XRPD method 2) ([7]; VT11 25° C./N2 protection (10 min)): Form S
XRPD (XRPD method 2) ([7]; VT12 25° C./55% RH (3 h)): Form D
Color [8, 10]: A
Color [8, 11]: A
Color [8, 12]: A
Color [8, 13]: A
Color [8, 14]: A
Color [8, 15]: A

Nc1nc(=O)n(-c2ccccc2Cl)c2nc(C(F)(F)F)ccc12 [Form U, 4-Amino-1-(2-chlorophenyl)-7-(trifluoromethyl)pyrido[2,3-d]pyrimidin-2(1H)-one]
form after cooling to 25° C. ([2]; after heating to 250° C.): Form T

Nc1nc(=O)n(-c2ccccc2Cl)c2nc(C(F)(F)F)ccc12 [Form E, 4-Amino-1-(2-chlorophenyl)-7-(trifluoromethyl)pyrido[2,3-d]pyrimidin-2(1H)-one]
solubility at 24 h ([3]; pH 5, fessif, FeSSIF, pH 5.0, 37° C.): 140 µg/mL (≈ 411 µM)
solubility at 24 h ([3]; pH 6.5, fassif, FaSSIF, pH 6.5, 37° C.): 60 µg/mL (≈ 176 µM)
XRPD of solid after solubility test ([3]; FaSSIF, pH 6.5, 37° C.): Form E
final pH ([3]; FaSSIF, pH 6.5, 37° C.): 6.6
XRPD of solid after solubility test ([3]; FeSSIF, pH 5.0, 37° C.): Form E
final pH ([3]; FeSSIF, pH 5.0, 37° C.): 5.2

Nc1nc(=O)n(-c2ccccc2Cl)c2nc(C(F)(F)F)ccc12 [Form S, 4-Amino-1-(2-chlorophenyl)-7-(trifluoromethyl)pyrido[2,3-d]pyrimidin-2(1H)-one]
humidity at which water is absorbed again / water content restored (conversion back to the hydrate) ([1]; 25° C.): higher than 20 % RH
form after exposure to ambient condition for 3 h ([2]; XRPD, 25° C.): Form D

Nc1nc(=O)n(-c2ccccc2Cl)c2nc(C(F)(F)F)ccc12 [Form R, 4-Amino-1-(2-chlorophenyl)-7-(trifluoromethyl)pyrido[2,3-d]pyrimidin-2(1H)-one]
impurity from HPLC result [9]: about 68.5%

Nc1nc(=O)n(-c2ccccc2Cl)c2nc(C(F)(F)F)ccc12 [Form C, 4-Amino-1-(2-chlorophenyl)-7-(trifluoromethyl)pyrido[2,3-d]pyrimidin-2(1H)-one]
humidity below which the form starts to lose water ([1]; 25° C.): below 30 % RH
form change after the DVS test [1]: A mixture of Form L and Form C was obtained
XRPD (XRPD method 2) ([2]; VT2 120° C./60% RH (10 min)): Form L
XRPD (XRPD method 2) ([2]; VT4 25° C./80% RH (40 min)): Form C
XRPD (XRPD method 2) ([2]; VT6 25° C./60% RH (initial)): Form C
temperature above which the form starts to lose water [2]: higher than 44 °C
dehydration product (form obtained on loss of water) [2]: Form L
XRPD of solid after solubility test ([3]; FaSSIF, pH 6.5, 37° C.): Form C
final pH ([3]; FaSSIF, pH 6.5, 37° C.): 6.6
Solubility ([3]; FaSSIF, pH 6.5, 37° C.): 60 µg/mL (≈ 176 µM)
impurity in solubility sample ([3]; FaSSIF, pH 6.5, 37° C.): no impurity
XRPD of solid after solubility test ([3]; FeSSIF, pH 5.0, 37° C.): Form C
final pH ([3]; FeSSIF, pH 5.0, 37° C.): 5.2
Solubility ([3]; FeSSIF, pH 5.0, 37° C.): 170 µg/mL (≈ 499 µM)
impurity in solubility sample ([3]; FeSSIF, pH 5.0, 37° C.): no impurity
XRPD (XRPD method 2) ([7]; VT1 25° C./60% RH (initial)): Form C
XRPD (XRPD method 2) ([7]; VT7 250° C./60% RH (10 min)): Solid state Form V
XRPD (XRPD method 2) ([7]; VT8 25° C./60% RH (final)): Solid state Form V
